Data from ChEMBL document CHEMBL5523756, “Molecular Transformers: Adaptive Multitarget Ligands for Esterase-Induced Transition from Analgesics to Anesthetics” (J Med Chem, 2024).
Calls of active or inactive are those of the source. No cut-off for these calls is given here.

Tests used:
[1] = test system: Rattus norvegicus; test: Anesthesia recovery in Sprague-Dawley rat assessed as effect on recovery time of righting reflex at 19 mg/kg administered as continuous infusion followed by maintenance at 3.25 mg/kg/min for 0 to 20 mins, 2.5 mg/kg/min for 20 to 30 mins and 2 mg/kg/min for 30 to 60 mins; type: functional, organism-based; details: route par
[2] = test system: Rattus norvegicus; test: Analgesic activity in Sprague-Dawley rat model of thermal nociception assessed as increase in hind-paw withdrawal latency at 19 mg/kg administered as continuous infusion followed by maintenance at 3.25 mg/kg/min for 0 to 20 mins, 2.5 mg/kg/min for 20 to 30 mins and 2 mg/kg/min for 30 to 60 mins; type: functional, organism-based; details: route par, TDE = time-dependent effect
[3] = (§1) Toxicity in Sprague-Dawley rat assessed as effect on minute ventilation box at 19 mg/kg administered as continuous infusion followed by maintenance at 3.25 mg/kg/min for 0 to 20 mins, 2.5 mg/kg/min for 20 to 30 mins and 2 mg/kg/min for 30 to 60 mins and measured every 5 mins for 60 mins by whole-body plethysmography; type: organism-based; details: in vivo, other, 1 h, route par
[4] = as §1, with “end expiratory pause” for “minute ventilation box”; type: organism-based; details: in vivo, other, 1 h, route par
[5] = as §1, with “amount of respiration” for “minute ventilation box”; type: organism-based; details: in vivo, other, 1 h, route par
[6] = Toxicity in Sprague-Dawley rat assessed as effect on gastrointestinal function by measuring ink peristalsis at 19 mg/kg administered as continuous infusion followed by maintenance at 3.25 mg/kg/min for 0 to 20 mins, 2.5 mg/kg/min for 20 to 30 mins and 2 mg/kg/min for 30 to 60 mins and further administered with ink suspension and measured after 10 mins; type: organism-based; details: in vivo, other, 1.167 h, route par, time 70 min
[7] = Toxicity in Sprague-Dawley rat assessed as Q-T interval prolongation at 19 mg/kg administered as continuous infusion followed by maintenance at 3.25 mg/kg/min for 0 to 20 mins, 2.5 mg/kg/min for 20 to 30 mins and 2 mg/kg/min for 30 to 60 mins by electrocardiogram recording; type: organism-based; details: in vivo, other, 1 h, route par
[8] = Toxicity in Sprague-Dawley rat assessed as change in P-R interval at 19 mg/kg administered as continuous infusion followed by maintenance at 3.25 mg/kg/min for 0 to 20 mins, 2.5 mg/kg/min for 20 to 30 mins and 2 mg/kg/min for 30 to 60 mins and measured between 30 to 50 mins by electrocardiogram recording; type: organism-based; details: in vivo, other, time 30-50 min, route par
[9] = Toxicity in Sprague-Dawley rat assessed as alterations in QRS complex duration at 19 mg/kg administered as continuous infusion followed by maintenance at 3.25 mg/kg/min for 0 to 20 mins, 2.5 mg/kg/min for 20 to 30 mins and 2 mg/kg/min for 30 to 60 mins by electrocardiogram recording; type: organism-based; details: in vivo, other, 1 h, route par
[10] = test system: Mus musculus; test: Antiseizure activity in iv dosed ICR mouse model of PTZ-induced acute seizure assessed as prolongation of latency time before onset of first convulsion preadministered for 1 min followed by PTZ treatment; type: functional, organism-based
[11] = test system: Mus musculus; test: Antiseizure activity in iv dosed ICR mouse model of PTZ-induced acute seizure assessed as reduction in maximum seizure class preadministered for 1 min followed by PTZ treatment and measured for 15 mins by Racine's scale based analysis; type: functional, organism-based; details: time 16.0 min
[12] = test system: Mus musculus; test: Antiseizure activity in iv dosed ICR mouse model of PTZ-induced acute seizure assessed as mortality rate preadministered for 1 min followed by PTZ treatment and measured for 7 days (reference value: 83.3%); type: functional; details: time 7 day
[13] = Toxicity in Sprague-Dawley rat assessed as effect on AST level at 19 mg/kg administered as continuous infusion followed by maintenance at 3.25 mg/kg/min for 0 to 20 mins, 2.5 mg/kg/min for 20 to 30 mins and 2 mg/kg/min for 30 to 60 mins; type: organism-based; details: in vivo, other, 1 h, route par
[14] = Toxicity in Sprague-Dawley rat assessed as effect on LDH level at 19 mg/kg administered as continuous infusion followed by maintenance at 3.25 mg/kg/min for 0 to 20 mins, 2.5 mg/kg/min for 20 to 30 mins and 2 mg/kg/min for 30 to 60 mins; type: organism-based; details: in vivo, other, 1 h, route par
[15] = Toxicity in Sprague-Dawley rat assessed as ALT level at 19 mg/kg administered as continuous infusion followed by maintenance at 3.25 mg/kg/min for 0 to 20 mins, 2.5 mg/kg/min for 20 to 30 mins and 2 mg/kg/min for 30 to 60 mins; type: organism-based; details: in vivo, other, 1 h, route par
[16] = Toxicity in ICR mouse assessed as histopathological changes in liver at 1.5 times ED50, iv administered as single dose and measured after 14 days by H and E staining based analysis; type: organism-based; details: in vivo, 336 h, time 14 day
[17] = Toxicity in ICR mouse assessed as histopathological changes in kidney at 1.5 times ED50, iv administered as single dose and measured after 14 days by H and E staining based analysis; type: organism-based; details: in vivo, 336 h, time 14 day
[18] = (§2) Toxicity in Sprague-Dawley rat assessed as histopathological changes in liver at 19 mg/kg administered as continuous infusion followed by maintenance at 3.25 mg/kg/min for 0 to 20 mins, 2.5 mg/kg/min for 20 to 30 mins and 2 mg/kg/min for 30 to 60 mins and measured after 14 days by H and E staining based analysis; type: organism-based; details: in vivo, other, 336 h, route par, time 14 day
[19] = as §2, with “kidney” for “liver”; type: organism-based; details: in vivo, other, 336 h, route par, time 14 day
[20] = target: Cytochrome P450 3A4 (Homo sapiens, UniProt P08684); test: Inhibition of CYP3A4 (unknown origin) using midazolam as substrate at 10 uM; type: ADME
[21] = target: Cytochrome P450 2C9 (Homo sapiens, UniProt P11712); test: Inhibition of CYP2C9 (unknown origin) using diclofenac as substrate at 10 uM; type: ADME
[22] = Stability of compound in 0.1M PBS at 1 mg/ml measured upto 360 mins by HPLC analysis; type: physicochemical; details: buffer, 6 h
[23] = Stability in mouse plasma assessed as half life at 1 mg/ml measured upto 360 mins by HPLC analysis; type: ADME, cell-free
[24] = Stability in rat plasma assessed as half life at 1 mg/ml measured upto 360 mins by HPLC analysis; type: ADME, cell-free
[25] = Drug metabolism in mouse liver microsomes assessed as propofol release by measuring half life at 1 mg/ml measured upto 360 mins by LC-MS analysis; type: ADME, Microsome; details: 6 h
[26] = Drug metabolism in rat liver microsomes assessed as propofol release by measuring half life at 1 mg/ml measured upto 360 mins by LC-MS analysis; type: ADME, Microsome; details: 6 h
[27] = target: GABA-A receptor; alpha-1/beta-2/gamma-2 (Homo sapiens) (UniProt P14867+P47870+P18507); test: Agonist activity at alpha1beta2gamma2 GABA-A receptor (unknown origin) at 10 uM at -70 mV holding potential by electrophysiological recording; type: protein-complex assay
[28] = target: Sodium channel protein type 10 subunit alpha (Homo sapiens, UniProt Q9Y5Y9); test: Inhibition of Nav1.8 channel (unknown origin) at half inactivation state at -120 mV conditioning pulse by voltage clamp electrophysiological recording
[29] = test system: DRG neuron; test: Modulation of CFA-induced male ICR mouse DRG neuron excitability assessed as reduction in action potential firing frequency at 10 uM by whole cell […] assay; type: functional, cell-based

Cytochrome P450 2C9, sequence (P11712 whole entry): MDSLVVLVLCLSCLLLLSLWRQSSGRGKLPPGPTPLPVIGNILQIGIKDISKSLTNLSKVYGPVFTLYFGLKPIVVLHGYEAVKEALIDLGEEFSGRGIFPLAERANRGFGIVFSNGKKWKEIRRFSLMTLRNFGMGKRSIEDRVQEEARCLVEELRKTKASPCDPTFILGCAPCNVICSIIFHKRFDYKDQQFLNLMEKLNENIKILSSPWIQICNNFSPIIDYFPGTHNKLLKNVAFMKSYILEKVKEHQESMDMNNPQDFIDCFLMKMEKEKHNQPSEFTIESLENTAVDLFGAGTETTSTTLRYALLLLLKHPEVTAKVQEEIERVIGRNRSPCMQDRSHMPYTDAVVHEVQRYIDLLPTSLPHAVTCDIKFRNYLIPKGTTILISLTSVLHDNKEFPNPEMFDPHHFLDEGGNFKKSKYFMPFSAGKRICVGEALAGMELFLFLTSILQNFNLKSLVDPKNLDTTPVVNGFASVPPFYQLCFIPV
Sodium channel protein type 10 subunit alpha, sequence (Q9Y5Y9 whole entry): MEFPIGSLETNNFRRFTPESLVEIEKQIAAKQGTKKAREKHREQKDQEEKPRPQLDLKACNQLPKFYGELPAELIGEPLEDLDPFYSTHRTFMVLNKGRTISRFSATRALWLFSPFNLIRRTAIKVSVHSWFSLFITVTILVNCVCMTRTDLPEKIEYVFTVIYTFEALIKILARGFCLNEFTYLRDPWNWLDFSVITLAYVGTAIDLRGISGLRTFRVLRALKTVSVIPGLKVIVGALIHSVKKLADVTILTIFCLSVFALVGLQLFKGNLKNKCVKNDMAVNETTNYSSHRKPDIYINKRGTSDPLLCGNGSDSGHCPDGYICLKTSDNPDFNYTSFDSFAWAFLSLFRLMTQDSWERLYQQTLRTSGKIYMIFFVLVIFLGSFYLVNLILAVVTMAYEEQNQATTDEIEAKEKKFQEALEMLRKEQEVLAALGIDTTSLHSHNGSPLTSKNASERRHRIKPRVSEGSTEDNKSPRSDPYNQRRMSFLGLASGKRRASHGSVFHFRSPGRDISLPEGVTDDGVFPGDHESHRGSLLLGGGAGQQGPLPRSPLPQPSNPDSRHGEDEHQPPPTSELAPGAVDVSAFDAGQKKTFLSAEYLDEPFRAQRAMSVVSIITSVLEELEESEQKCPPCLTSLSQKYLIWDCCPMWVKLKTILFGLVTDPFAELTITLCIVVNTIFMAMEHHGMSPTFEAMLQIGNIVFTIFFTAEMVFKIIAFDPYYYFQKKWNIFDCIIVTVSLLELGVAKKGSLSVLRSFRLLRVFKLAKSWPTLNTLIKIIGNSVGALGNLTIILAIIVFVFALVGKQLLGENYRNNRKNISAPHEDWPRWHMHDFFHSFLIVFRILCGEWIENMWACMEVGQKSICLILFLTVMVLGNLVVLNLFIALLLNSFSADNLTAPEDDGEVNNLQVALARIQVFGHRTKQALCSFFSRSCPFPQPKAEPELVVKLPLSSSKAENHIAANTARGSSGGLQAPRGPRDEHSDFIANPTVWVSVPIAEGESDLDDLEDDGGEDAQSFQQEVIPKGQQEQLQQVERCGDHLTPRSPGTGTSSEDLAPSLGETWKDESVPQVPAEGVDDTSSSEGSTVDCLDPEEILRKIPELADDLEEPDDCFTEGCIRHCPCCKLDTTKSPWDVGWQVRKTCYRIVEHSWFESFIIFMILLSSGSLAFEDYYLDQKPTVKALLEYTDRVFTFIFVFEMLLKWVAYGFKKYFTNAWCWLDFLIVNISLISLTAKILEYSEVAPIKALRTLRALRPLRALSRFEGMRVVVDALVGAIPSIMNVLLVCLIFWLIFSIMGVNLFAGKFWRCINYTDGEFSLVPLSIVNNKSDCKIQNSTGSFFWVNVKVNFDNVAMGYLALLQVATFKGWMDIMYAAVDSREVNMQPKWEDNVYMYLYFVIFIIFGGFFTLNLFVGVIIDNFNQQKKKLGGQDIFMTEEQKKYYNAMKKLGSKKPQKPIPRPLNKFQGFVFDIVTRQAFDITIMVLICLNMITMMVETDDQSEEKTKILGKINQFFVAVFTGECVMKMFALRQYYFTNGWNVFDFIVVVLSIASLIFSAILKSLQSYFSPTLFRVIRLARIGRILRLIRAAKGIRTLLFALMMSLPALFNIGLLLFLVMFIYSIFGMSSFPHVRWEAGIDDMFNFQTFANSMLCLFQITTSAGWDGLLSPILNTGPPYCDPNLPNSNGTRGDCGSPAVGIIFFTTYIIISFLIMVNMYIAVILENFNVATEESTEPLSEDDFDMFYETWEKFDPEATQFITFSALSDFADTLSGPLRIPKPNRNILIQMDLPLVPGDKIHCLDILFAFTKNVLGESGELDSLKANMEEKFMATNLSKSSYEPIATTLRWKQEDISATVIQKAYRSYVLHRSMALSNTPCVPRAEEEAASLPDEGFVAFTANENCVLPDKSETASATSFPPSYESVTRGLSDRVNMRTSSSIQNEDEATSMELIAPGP
Cytochrome P450 3A4, sequence (P08684 whole entry): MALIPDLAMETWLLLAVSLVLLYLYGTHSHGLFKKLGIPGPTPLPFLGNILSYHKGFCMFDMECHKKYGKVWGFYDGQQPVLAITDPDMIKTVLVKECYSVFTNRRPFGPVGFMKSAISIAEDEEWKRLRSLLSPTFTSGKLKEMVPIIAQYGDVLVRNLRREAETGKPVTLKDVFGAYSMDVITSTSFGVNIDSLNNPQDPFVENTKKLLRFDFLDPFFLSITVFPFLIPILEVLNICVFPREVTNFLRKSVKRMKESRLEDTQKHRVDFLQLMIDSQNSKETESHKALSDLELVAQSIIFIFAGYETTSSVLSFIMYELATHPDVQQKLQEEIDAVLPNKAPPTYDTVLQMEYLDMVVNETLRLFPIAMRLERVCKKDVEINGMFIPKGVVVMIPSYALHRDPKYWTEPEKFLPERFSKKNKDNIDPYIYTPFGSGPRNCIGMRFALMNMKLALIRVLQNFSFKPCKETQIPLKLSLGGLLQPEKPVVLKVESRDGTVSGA

In the case of `CCN(CC)CCOC(=O)Oc1c(C(C)C)cccc1C(C)C.Cl`, the Activity [1] is reported as “Active”, the Activity [2] is reported as “Tde” and the Activity [3] is reported as “Non-Toxic”. For the same molecule, the Activity [4] was “Non-Toxic”, the Activity [5] was “Non-Toxic” and the Activity [6] was “Non-Toxic”. The Activity [7] was “Non-Toxic”, the Activity [8] was “Toxic” and the Activity [9] was “Non-Toxic”. The Activity [10] was “Active”, the Activity [11] was “Active” and the Activity [12] was 0%. For the same molecule, the Activity [13] was “Non-Toxic”, the Activity [14] was “Non-Toxic” and the Activity [15] was 52.47 U/L. The Activity [16] was “Non-Toxic”, the Activity [17] was “Non-Toxic” and the Activity [18] was “Non-Toxic”. The Activity [19] was “Non-Toxic”, the “inhibition (INH)” value [20] was “Not Active” and the “inhibition (INH)” value [21] was “Not Active”. For the same molecule, the Stability [22] was “Stable”, the half-life at 1 mg/ml [23] was 19.2 min and the half-life at 1 mg/ml [24] was 1.7 min. The t1/2 [25] was 45.98 min, the t1/2 [26] was 81.09 min and the Activity [27] was “inactive”. For the same molecule, the IC50 [28] was 1.92 µM and the Activity [29] was “Active”.
